Reference: patent US11213509B2, “Compositions and methods for treating traumatic brain injury” (Ischemix, LLC, priority 2017, dated 2022)

Key:
[1] = test system: fluid percussion model of diffused traumatic brain injury (TBI) in rats; assay: Limb placing test, fluid percussion model of diffused TBI; assay type: in vivo, rat; conditions: vs vehicle, p<0.001, starting 1 day following TBI
Method: On the day before TBI surgery (Day −1), rats were anesthetized with 3% isoflurane in a mixture of nitrous oxide and oxygen (2:1) for induction of anesthesia and then maintained at 1-3% isoflurane in a mixture of nitrous oxide and oxygen (2:1). The surgical site skin was shaved, and the rat was then placed in a stereotaxic frame. Buprenorphine SR, s.c, (0.9-1.2 mg/kg Zoopharm: Lot: BSR1-142111) and Cefazolin, i.p., (40-50 mg/kg; Hospira: Lot: 101D032) was given at this time. The skull was exposed through a midline incision. A parasagittal craniotomy (5 mm) using a trephine drill was performed at 1 mm posterior to bregma and 1 mm lateral to the midline (outer circumference). A sterile plastic injury tube (the plastic connector hub of a sterile needle cut 1 cm in length and trimmed to fill the craniotomy securely) was placed over the exposed dura and bonded by super glue to the skull. Dental cement was then poured around the injury tube to obtain a complete seal. After the dental cement had hardened, the injury tube was filled with sterile saline and the skin was closed by surgical clips. The animals were then returned to a clean home cage after recovery from the anesthesia.
(§1) On the day of TBI surgery (Day 0), rats were re-anesthetized with 3% isoflurane in a mixture of nitrous oxide and oxygen (2:1), intubated, connected to a respirator and ventilated with 1-2% isoflurane in a mixture of nitrous oxide and oxygen (2:1). […] The amplitude of the resulting pressure pulse was measured in atmospheres by a pressure transducer. […]
(§2) Dosing solutions were prepared in a blinded fashion with H, I, M, O and Z labels ready to use. […]
Limb placing tests were divided into both forelimb and hindlimb tests. For the forelimb-placing test, the examiner held the rat close to a tabletop and scored the rat's ability to place the forelimb on the tabletop in response to whisker, visual, tactile, or proprioceptive stimulation. For the hindlimb placing test, the examiner assessed the rat's ability to place the hindlimb on the tabletop in response to tactile and proprioceptive stimulation. […]

[2] = Body weight change, fluid percussion model of diffused TBI; assay type: in vivo, rat; conditions: 7.5, 15, 30, 45 mg/kg i.v. vs vehicle; 28 days
Method: On the day before TBI surgery (Day −1), rats were anesthetized with 3% isoflurane in a mixture of nitrous oxide and oxygen (2:1) for induction of anesthesia and then maintained at 1-3% isoflurane in a mixture of nitrous oxide and oxygen (2:1). The surgical site skin was shaved, and the rat was then placed in a stereotaxic frame. Buprenorphine SR, s.c, (0.9-1.2 mg/kg Zoopharm: Lot: BSR1-142111) and Cefazolin, i.p., (40-50 mg/kg; Hospira: Lot: 101D032) was given at this time. The skull was exposed through a midline incision. A parasagittal craniotomy (5 mm) using a trephine drill was performed at 1 mm posterior to bregma and 1 mm lateral to the midline (outer circumference). […]
as §1, §2
All data were expressed as mean S.E.M. Behavioral data and weight were analyzed by repeated measures of ANOVA and/or ANCOVA. […]

[3] = Body weight and post-operative observations, rat model of focal TBI (BCCI); assay type: in vivo
Text: Adult, male, Spague-Dawley rats from Charles River were used. Animals were received at PsychoGenics and assigned unique identification numbers (tails marked). Animals were housed 2 per cage in polycarbonate rat cages equipped with microisolators and acclimated for up to 7 days. All rats were examined, handled, and weighed prior to initiation of the study to assure adequate health and suitability. During the course of the study, 12/12 light/dark cycles were maintained. The room temperature was maintained between 20 and 23° C. with a relative humidity maintained around 50%. Chow and water were provided ad libitum for the duration of the study. Animals were randomly assigned across treatment groups.
BCCI TBI to the medial frontal cortex (MFC) was induced by a cortical contusion device (Custom Design & Fabrication, Inc [CDF], Richmond, Va.). This device creates a reliable contusion injury to the exposed area of the brain with a brass-tipped impounder. (Hoffman et al., 1994). Rats were anesthetized with isoflurane (5%) (Novaplus™), and 02 (300 cm^3/min), and mounted in a stereotaxic frame. […]
Data are presented as mean±SEM and analyzed by one-way repeated measures Analysis of variance (ANOVA) in order to test the effects of treatment on beam balance times and Morris water maze performance. […]

With `CC(NC(=O)C(CCC(=O)O)NC(=O)CCCCC1CCSS1)C(=O)O` [CMX-2043, N—(R)-lipoyl-glutamylalanine] the “Limb placing test recovery” value ([1]; 15 mg/kg i.v. at 30 minutes and 24 hours after TBI) was “superior recovery compared to vehicle-treated animals”, the “Limb placing test recovery” value ([1]; 30 mg/kg i.v. at 30 minutes and 24 hours after TBI) was “superior recovery compared to vehicle-treated animals” and the “Limb placing test recovery” value ([1]; 45 mg/kg i.v. at 30 minutes and 24 hours after TBI) was “superior recovery compared to vehicle-treated animals”. For the same compound, the “Body weight over time” value [2] was “no significant differences”, the “Body weight / weight gain” value ([3]; 30 mg/kg IV at 30 minutes and about 24 hrs after injury, vs saline) was “no adverse effects on weight gain” and the “Survival (deaths within 24 hours post-injury)” value ([3]; 30 mg/kg IV, TBI-injured rats) was 9 surviving animals of the 11 animals treated.
